Measurements as given in article PMC11943435, “Functional Investigation of the Receptor to the Major Pheromone Component in the C-Strain and the R-Strain of the Fall Armyworm Spodoptera frugiperda” (Insects, 2025).

Target: T1, C-SfruOR13 (SfruOR13 from the C-strain) (Spodoptera frugiperda, UniProt A0A9R0CXR4)
T1 construct: gene LOC118264496; full-length ORF (435 residues), synthesized, pUAST.attB; expressed in Drosophila at1 trichoid OSNs (Or67d-GAL4) replacing OR67d; Orco is that of the fly host; with Odorant receptor coreceptor (endogenous, Drosophila melanogaster)
T1 sequence (A0A9R0CXR4 1-435): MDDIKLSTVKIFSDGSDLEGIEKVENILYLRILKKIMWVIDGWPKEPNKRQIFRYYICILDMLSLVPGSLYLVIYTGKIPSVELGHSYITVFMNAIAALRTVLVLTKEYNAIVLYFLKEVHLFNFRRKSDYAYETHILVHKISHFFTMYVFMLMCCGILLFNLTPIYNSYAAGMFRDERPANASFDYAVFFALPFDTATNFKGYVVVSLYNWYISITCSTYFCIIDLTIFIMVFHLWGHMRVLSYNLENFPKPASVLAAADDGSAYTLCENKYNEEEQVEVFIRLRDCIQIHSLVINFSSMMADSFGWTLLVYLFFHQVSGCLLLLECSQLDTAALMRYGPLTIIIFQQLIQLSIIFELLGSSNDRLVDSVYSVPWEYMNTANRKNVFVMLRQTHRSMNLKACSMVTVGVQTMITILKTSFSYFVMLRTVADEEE
T1 sequence (Q9VNB5 1-486 partner): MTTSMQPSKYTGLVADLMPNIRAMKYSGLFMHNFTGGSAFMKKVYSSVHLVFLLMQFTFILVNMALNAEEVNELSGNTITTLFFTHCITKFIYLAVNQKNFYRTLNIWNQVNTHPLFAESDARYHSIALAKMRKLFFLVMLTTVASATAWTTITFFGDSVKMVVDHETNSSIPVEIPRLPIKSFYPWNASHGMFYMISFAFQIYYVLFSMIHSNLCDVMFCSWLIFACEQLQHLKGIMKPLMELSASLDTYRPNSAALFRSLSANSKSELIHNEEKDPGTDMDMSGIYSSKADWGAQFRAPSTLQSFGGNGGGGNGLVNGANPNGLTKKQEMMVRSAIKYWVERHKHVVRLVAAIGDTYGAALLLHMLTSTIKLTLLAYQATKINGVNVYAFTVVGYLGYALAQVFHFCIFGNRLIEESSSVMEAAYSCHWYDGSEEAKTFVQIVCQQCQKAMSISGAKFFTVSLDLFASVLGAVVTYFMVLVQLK
Test: single-sensillum recording, Drosophila at1 OSNs, dose-response
Assay type: cell-based
Details: agonist; vapour stimulus, 10 ng to 10 µg loaded on filter paper in hexane

Structure (SMILES): CCCC/C=C\CCCCCCCCOC(C)=O [(Z)-9-14:OAc, (Z)-9-tetradecenyl acetate]
- single-sensillum recording, Drosophila at1 OSNs, dose-response: C-SfruOR13 was significantly activated by the same three compounds that elicited a response in R-SfruOR13
